Data on 5 molecules can be found in US10568819B2, “Skin enhancing compositions and methods” (Sytheon Limited, priority 2016, dated 2020).

Read-outs that look alike come from different tables or passages of the source.

Test [1] has as its system ϕX-174 RF bacteriophage supercoiled DNA. Briefly: UVA/AGE-albumin-induced DNA strand breaks (QPES). It counts as biochemical. As to the method: A study was undertaken to determine whether the aryl alkanones of the present invention have the ability to reduce photooxidative stress by physical Quencher of Photo-excited States (QPES) mechanism under UV light employing the method of Wondarak et al, (J Invest Dermatol, 119:489, 2002). Briefly, 100 ng (experiment 1) or 200 ng (experiment 2) of ϕX-174 RF bacteriophage supercoiled DNA was irradiated in the presence of […] of filtered glycated bovine serum albumin (20 mg/ml BSA reacted for 3 weeks with 180 mg/ml glucose at 37° C.) in a final volume of 100 μl. The irradiation was performed in a 96 well plate without lid, with UVA lamp (Ultra-lum UVA-28T at 6.4 mW/cm^2) for 2 h, delivering a total energy of […]. Following irradiation 10 μl of the reaction mixture was mixed with 2 μl of loading buffer, resolved in 1% agarose gel (at 90V for 20 min) and stained with ethidium bromide ([…]). The intact (supercoiled) lower (faster-migrating) band and the UVA-damaged (uncoiled) higher (slower-migrating) band were visualized using Hoefer transilluminator. Photographs of the gels were then processed using NIH ImageJ and ratio of unwound (damaged) to supercoiled (intact) bands was calculated and used to assess the protective activity of test materials.

Test [2] in a line: Antioxidant power / quenching: singlet oxygen.
Protocol: Separately, a study of the singlet oxygen quenching ability of Compound 1 and Compound 7 were evaluated.
Test [3] deals with Fibroblasts. Briefly: UVA- and UVB-induced formation of immediate CPDs (iCPDs) in fibroblasts. It counts as cell-based. The settings on record: 25 μg/ml. How it is done: (§1) Given the significance of CPDs in skin aging and damage, a study was undertaken to determine whether compounds of the present invention have the ability to directly protect the genome of skin cells from the mutagenic effect of UV light as evidenced by CPDs inhibition. The study was conducted in accordance with the method described by Mitchell et. al. [Mitchell, D L, The relative cytotoxicity of (6-4) photoproducts and cyclobutane dimers in mammalian cells. Photochem Photobiol, 48(1):51-57, 1988)] pursuant to which UVA- and UVB-induced formation of immediate CPDs (iCPDs) were determined.

In the next test the test system is Keratinocyte. Briefly: UVA-induced delayed formation of CPDs (dCPDs) in keratinocytes. It counts as cell-based. As to conditions: 25 μg/ml. As to the method:
(§2) A second study was carried out, similar to the first, except that this time the analysis was in assessing the efficacy, if any, of the presently taught aryl alkanones in reducing UVA-induced delayed formation of CPDs (dCPDs).

The next test relates to Keratinocytes. Briefly: UVA- and UVB-induced formation of immediate CPDs (iCPDs) in keratinocytes. It counts as cell-based. How it is done:
as §1

For the next test, the target named is iNOS (Homo sapiens, UniProt P35228). Briefly: Reduction of iNOS activity. In kind it is biochemical. As to conditions: read-out: Reduction of iNOS activity, Amount used in μM (IC50) values). The source says:
Accordingly, an investigation was undertaken to assess the efficacy of compounds according to the present teaching as compared to compounds that are closely structurally related thereto in inhibiting NO product.

Test [4] has as its system Fibroblasts. Briefly: UVA-induced delayed formation of CPDs (dCPDs) in fibroblasts. In kind it is cell-based. As to conditions: 25 μg/ml. As to the method: as §2
Test [5] concerns NOX. As to conditions: UVA; Fibroblasts; 50 μg/ml.
Test [6] relates to NOX. As to conditions: UVA; Keratinocytes; 50 μg/ml.
The nature of test [7]: Lipid peroxidation, squalene substrate. It counts as biochemical. As to conditions: Squalene used as a substrate.
Test [8] can be described thus: Antioxidant power: peroxyl radicals.
Test [9] in a line: Antioxidant power: peroxynitrite.
A short description of test [10]: Antioxidant power: super oxide anion.
Test [11] in a line: Antioxidant power: hydroxyl radicals.

Chain of iNOS (P35228 whole entry, species assumed): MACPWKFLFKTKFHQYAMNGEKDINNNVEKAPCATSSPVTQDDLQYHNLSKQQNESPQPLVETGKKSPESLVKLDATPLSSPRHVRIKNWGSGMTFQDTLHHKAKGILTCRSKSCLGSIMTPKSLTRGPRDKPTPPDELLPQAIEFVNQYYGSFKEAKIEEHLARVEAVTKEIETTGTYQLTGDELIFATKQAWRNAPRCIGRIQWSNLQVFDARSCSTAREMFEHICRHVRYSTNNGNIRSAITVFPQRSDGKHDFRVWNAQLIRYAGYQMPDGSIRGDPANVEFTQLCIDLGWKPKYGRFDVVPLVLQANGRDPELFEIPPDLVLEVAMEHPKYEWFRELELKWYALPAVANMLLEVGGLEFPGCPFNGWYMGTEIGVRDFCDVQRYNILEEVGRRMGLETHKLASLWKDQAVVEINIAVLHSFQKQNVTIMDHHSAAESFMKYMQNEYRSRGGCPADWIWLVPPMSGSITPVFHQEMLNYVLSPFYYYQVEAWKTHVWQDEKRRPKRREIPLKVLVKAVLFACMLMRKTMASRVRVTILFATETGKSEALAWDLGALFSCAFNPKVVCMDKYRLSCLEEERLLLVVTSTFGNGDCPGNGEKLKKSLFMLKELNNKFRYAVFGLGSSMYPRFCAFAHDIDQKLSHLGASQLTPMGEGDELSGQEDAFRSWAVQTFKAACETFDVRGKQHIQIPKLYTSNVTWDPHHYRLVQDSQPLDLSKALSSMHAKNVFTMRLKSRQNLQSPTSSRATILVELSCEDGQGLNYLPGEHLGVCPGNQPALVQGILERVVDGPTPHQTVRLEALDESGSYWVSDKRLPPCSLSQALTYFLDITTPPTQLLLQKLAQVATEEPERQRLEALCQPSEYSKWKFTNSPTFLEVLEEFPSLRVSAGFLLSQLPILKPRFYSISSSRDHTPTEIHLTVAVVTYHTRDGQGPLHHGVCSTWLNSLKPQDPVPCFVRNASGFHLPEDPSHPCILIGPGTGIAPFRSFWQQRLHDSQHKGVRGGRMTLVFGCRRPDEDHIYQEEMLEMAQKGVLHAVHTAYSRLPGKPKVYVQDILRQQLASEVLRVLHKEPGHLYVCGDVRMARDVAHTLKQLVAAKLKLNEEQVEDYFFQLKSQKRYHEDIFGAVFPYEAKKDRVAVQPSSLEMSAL

For the molecule `COc1cc(CC(C(C)=O)C(C)=O)cc(OC)c1OC` [Compound 7], the entries for the “% DNA strand breaks” value in test [1] (0.03 μg/ml) and in test [1] (0.1 μg/ml) were 33% and 15%, respectively. The “% DNA strand protection” value in [1] (0.03 μg/ml) came out at 67%; in [1] (0.1 μg/ml) it was 85%. The “Antioxidant Power, Singlet oxygen” value in test [2] was 6,359+ μmole Trolox Equivalent/gram. For the same molecule, the Singlet oxygen quenching in [2] (±10% error) is on record as 6,359 μMole Trolox Equivalent/g.

In the case of `COc1cc(CCC(C)=O)ccc1O` [Zingerone, reference compound], the “UVA/% Reduction in iCPDs vs. Control” value with Fibroblasts [3] (UVA) and with Keratinocytes (25 μg/ml) was “No effect” throughout. For the same molecule, the “UVB/% Reduction iCPDs vs. Control” value with Fibroblasts [3] and in the test on Keratinocytes (25 μg/ml) was “No effect” in each case. Moreover, the “UVA/% Reduction in dCPDs vs. control” value with Keratinocyte (time not given) and in the test with Fibroblasts [4] (time not given) was “No effect” each time. Also, the IC50 on iNOS was 364 µM.

For the molecule `CCOC(=O)C(Cc1ccc(O)c(OC)c1)C(C)=O` (centres unmarked) [Compound 2], the “UVB/% Reduction iCPDs vs. Control” value with Fibroblasts [3] came to 44%. Moreover, the “UVA/% Reduction in dCPDs vs. control, 0 hr. (Reduction in iCPDs)” value in the test with Keratinocyte (0 hr.) is on record as “^+0 hr.: ↓26%”. Moreover, the “UVA/% Reduction in dCPDs vs. control, 1 hr.” value with Keratinocyte (1 hr.) was 1 hr.: ↓13%. Moreover, the “UVA/% Reduction in dCPDs vs. control, 2 hr.” value in the test on Keratinocyte (2 hr.) is 2 hr.: ~0%. Moreover, in the test on Keratinocytes (25 μg/ml), the “UVA/% Reduction in iCPDs vs. Control” value is 26% and the “UVB/% Reduction iCPDs vs. Control” value is recorded as 25%.

Take `CCOC(=O)C(Cc1cc(OC)c(OC)c(OC)c1)C(C)=O` (centres unmarked) [Compound 8]: in the test with Keratinocytes (50 μg/ml), the “UVA/% Reduction in iCPDs vs. Control” value was 42%^+. Further, the “reduction of NOX activity” value is reported as −14% with NOX [5] and −17% with NOX [6]. The “UVA/% Reduction in dCPDs vs. control, 0 hr. (Reduction in iCPDs)” value in the test with Fibroblasts [4] (0 hr., product incubated for 24 hrs. plus UVA irradiation) is listed as “^+0 hr.: No effect”. The “UVA/% Reduction in dCPDs vs. control, 1 hr.” value in the test on Fibroblasts [4] (1 hr., product incubated for 24 hrs. plus UVA irradiation) is 1 hr.: ↓35%. Also, the “UVA/% Reduction in dCPDs vs. control, 2 hr.” value in the test on Fibroblasts [4] (2 hr., product incubated for 24 hrs. plus UVA irradiation) is on record as 2 hr.: ↓52%. In addition, in the test on Fibroblasts [4] (4 hr., product incubated for 24 hrs. plus UVA irradiation), the “UVA/% Reduction in dCPDs vs. control, 4 hr.” value is 4 hr.: ↓32%.

On to Tocopherol, for which the “Lipid peroxidation IC50 value” in test [7] came out at 30 µg/mL. Besides, the “Antioxidant Power, Singlet oxygen” value in test [2] is on record as 1,110 μmole Trolox Equivalent/gram. Besides, the “Antioxidant Power, Peroxyl radicals” value in test [8] is listed as 813 μmole Trolox Equivalent/gram. Moreover, the “Antioxidant Power, Peroxynitrite” value in test [9] is listed as 1 μmole Trolox Equivalent/gram. In addition, the “Antioxidant Power, Super oxide anion” value in test [10] is recorded as “Not detected”. The “Antioxidant Power, Hydroxyl radicals” value in test [11] is “Not detected”.
